Entries after “also recorded” stand apart in the source; their conditions may differ.
Columns and labels:
[1] = Long-term stability tests of crystalline Compound A Form 1 (storage, HPLC purity and XRPD); format: physicochemical; details: for Purity: HPLC
Experimental: (§1) XRPD analysis was carried out on a PANalytical X'pert Pro with PIXcel detector (128 channels), scanning the samples between 3 and 35° 2θ. The material was gently ground (where required) to release any agglomerates and loaded onto a multi-well plate with Kapton or Mylar polymer film to support the sample. The multi-well plate was then placed into the diffractometer and analyzed using Cu K radiation (α1 λ=1.54060 Å; α2 λ=1.54443 Å; β=1.39225 Å; α1:α2 ratio=0.5) running in transmission mode (step size 0.0130° 2θ, step time 18.87s) using 40 kV/40 mA generator settings. Data were visualized and images generated using the HighScore Plus 4.7 desktop application (PANalytical, 2017). Crystalline Compound A Form 1 was not changed after storage at 25° C/60%RH for 36 months or storage at 40° C/75%RH for 6 months. Purity was determined by HPLC analysis.

[2] = Accelerated stability tests of crystalline Compound A Form 1 (storage, HPLC purity and XRPD); format: physicochemical; details: 7 days; for Purity: HPLC
Experimental: as §1, with “room temperature” for “25° C/60%RH”, “7 days, storage at 40° C./75% RH for 7 days,” for “36 months”, “80° C.” for “40° C/75%RH”, “7 days.” for “6 months.”

[3] = 25° C./60% RH (closed container), 3 months
[4] = 25° C./60% RH (closed container), 6 months
[5] = 25° C./60% RH (closed container), 12 months
[6] = 25° C./60% RH (closed container), 24 months
[7] = 25° C./60% RH (closed container), 36 months
[8] = 40° C./75% RH (closed container), 1 month
[9] = 40° C./75% RH (closed container), 3 months
[10] = 40° C./75% RH (closed container), 6 months

XRPD [1, 3]: Unchanged
Purity [1, 3]: 99.7%
XRPD [1, 4]: Unchanged
Purity [1, 4]: 99.7%
XRPD [1, 5]: Unchanged
Purity [1, 5]: 99.7%
XRPD [1, 6]: Unchanged
Purity [1, 6]: 99.7%
XRPD [1, 7]: not changed; also recorded: Unchanged
Purity [1, 7]: 99.7%
XRPD [1, 8]: Unchanged
Purity [1, 8]: 99.7%
XRPD [1, 9]: Unchanged
Purity [1, 9]: 99.7%
XRPD [1, 10]: not changed; also recorded: Unchanged
Purity [1, 10]: 99.8%
XRPD ([2]; 40° C./75% RH (open vial)): not changed; also recorded: Unchanged
Purity ([2]; 40° C./75% RH (open vial)): 99.93%
XRPD ([2]; 80° C. (closed vial)): not changed; also recorded: Unchanged
Purity ([2]; 80° C. (closed vial)): 99.93%
XRPD ([2]; Room Temperature (open vial)): not changed; also recorded: Unchanged
Purity ([2]; Room Temperature (open vial)): 99.93%
Compound: C[N+](C)(C)CCCCCn1c2ccc(Br)cc2c2cc(Br)ccc21.[Cl-] [Compound A Form 1, 5-(3,6-dibromo-9H-carbazol-9-yl)-N,N,N-trimethylpentan-1-aminium chloride Form 1]

From patent US20240150289A1, “CRYSTALLINE CARBAZOLE DERIVATIVE” (Raziel Therapeutics Ltd., priority 2021, published 2024)
